The values that follow come from patent US20030194719A1, “Tpst-assay for diagnosis of autism and related disorders” (priority 2000, published 2003).

One experiment concerns Tyrosyl protein sulphotransferase (TPST). Nature of the experiment: TPST activity assay in platelets from normal healthy blood donors (35S transfer from PAPS35 to EAY substrate). Format: biochemical, human. Conditions: Example 2; 100 μM. The method, then: The activity of sulphotransferases can be measured by monitoring the transfer of ^35S from the sulphate donor, PAPS^35, to the product, in this case the synthetic tyrosine substrate EAY. This assay uses platelets from control subjects (n=5) and those patients suffering from a particular disorder, selected from autism (n=14), irritable bowel syndrome (n=3) schizophrenia (gluten-sensitive)(n=4), food allergy (gluten, milk) (n=3) and depression (n=2).
Reaction mixtures were incubated for 50 minutes at 37° C. and reactions were stopped by barium acetate. Unreacted sulphate, proteins and nucleotides were precipitated by zinc sulphate and barium hydroxide. Within the reaction there is a positive and negative control. The positive control is termed 100%, and represents the total amount of radioactivity present in the hot PAPS^35 sample. The negative control is the “no-enzyme” reaction, this represents the amount of sulphate transferred to the product when no enzyme is present, i.e. the chemical reaction. The blank for the reaction is made up without PAPS^35 and without enzyme.
10 ml of whole blood was taken from patients and the blood cells removed. The remaining plasma was centrifuged at 8000 g for 5 mins to sediment the platelets. This platelet pellet was resuspended in 5 ml 10 mM phosphate buffered saline (PBS) containing 10 mM EDTA, recentrifuged at 2000 g at 4° C. for 30 min. […] The platelets were sonicated for 12×10 second bursts at 4° C. The platelet sonicates were stored in 1 ml portions at −70° C. prior to use.
Substrate: 10 μl EAY (300 μM; poly (Glu, Ala, Tyr) 6:3:1) was used in each test assay, to give a final concentration in the reaction of 20 μM. This solution was made up in MES reaction buffer.
Reaction mixtures were made up as in the table above. To begin the assay, platelet homogenate (20 μl) and PAPS^35 (20 μl) were added at 30-second intervals to a final volume of 150 μl. The reaction mixture was then incubated at 37° C. for 40 min. The reaction is stopped by the addition of 200 μl-barium acetate (0.1 M) and the tubes were vortexed and placed on ice for […].
Unreacted sulphate was then precipitated by the addition of 0.1 M zinc sulphate (200 μl) and 0.1 M barium hydroxide (200 μl). The tubes were vortexed and centrifuged at 6500 rpm for 3 min.
Repeat step 3. Supernatant (500 μl) was then added to scintillation fluid (3.5 ml) and S^35 was counted in a Phillips scintillation counter.
Various compounds were investigated, including fatty acids, flavonoids and amino acids. […] Compounds were tested at the concentrations shown and were dissolved in buffer where possible or ethanol if not.
In the Example shown in Table 6 and FIG. 6 compounds were all dissolved in DMSO and tested at 25 μM.
As for `O=c1c(-c2ccc(O)cc2)coc2cc(O)cc(O)c12` [Genistein], the “Effect on TPST activity (in words)” value is recorded as “inhibitory effect on TPST activity”.

Still in this experiment, the particulars now being: Example 2; concentrations as in Table 2; normal human platelets.
In the case of `O=C(O)CC(O)(CC(=O)O)C(=O)O` [Citrate], the “Effect on TPST activity (in words)” value is “increasing activity”.
`N[C@@H](CCC(=O)O)C(=O)O` [Glutamate]: the “Effect on TPST activity (in words)” value was “decreased activity”.
With `NC(=O)CC[C@H](N)C(=O)O` [Glutamine], the “Effect on TPST activity (in words)” value is recorded as “increased activity”.
`CCCCCCCC/C=C\CCCCCCCC(=O)O` [Oleic Acid]: the “Effect on TPST activity (in words)” value was “slight stimulation of TPST activity”.
Turning to `CCCCC[C@H](O)/C=C/[C@H]1[C@H](O)CC(=O)[C@@H]1C/C=C\CCCC(=O)O` [PGE2, prostaglandin E2], the “Effect on TPST activity (in words)” value is recorded as “stimulation of activity”.
With `N[C@@H](Cc1ccccc1)C(=O)O` [Phenylalanine], the “Effect on TPST activity (in words)” value is listed as “decreased TPST activity in a dose dependent fashion”.
For `O=C(O)CCC(=O)O` [Succinate], the “Effect on TPST activity (in words)” value is given as “decreasing sulphation”.

The same experiment, now with this note: Example 3; 25 μM; platelets.
For the compound `O=c1c(-c2ccc(O)cc2)coc2cc(O)ccc12` [Daidzein], the “Effect on TPST activity (in words)” value was “stimulation of TPST activity”.
Turning to `O=c1cc(-c2ccccc2)oc2ccccc12` [Flavone], the “Effect on TPST activity (in words)” value was “stimulation of TPST activity”.
Regarding `O=c1c(-c2ccc(O)cc2)coc2cc(O)cc(O)c12` [Genistein], the “Effect on TPST activity (in words)” value was “stimulation of TPST activity”.

The experiment is the same for the next values; noted with them: Example 3; 25 μM; platelets; listed as genistein.
As to `O=c1c(-c2ccc(O)cc2)coc2cc(O)cc(O)c12` [Genistein], the “Effect on TPST activity (in words)” value is on record as “TPST enhancing effect”.

The same experiment, now with this note: Table 2; 50 μM; normal human platelets.
As for `N[C@@H](Cc1ccccc1)C(=O)O` [Phenylalanine], the “% Control TPST Activity” value stood at 79%.

The experiment is the same for the next values; noted with them: Table 2; 100 μM; normal human platelets.
With `CCCC(=O)O` [Butyric Acid], the “% Control TPST Activity” value came to 125%.
Take `O=C(O)CC(O)(CC(=O)O)C(=O)O` [Citrate]: the “% Control TPST Activity” value is given as 113%.
For `O=c1c(-c2ccc(O)cc2)coc2cc(O)cc(O)c12` [Genistein], the “% Control TPST Activity” value is on record as 74%.
With `N[C@@H](CCC(=O)O)C(=O)O` [Glutamate], the “% Control TPST Activity” value is 67%.
Turning to `NC(=O)CC[C@H](N)C(=O)O` [Glutamine], the “% Control TPST Activity” value was 125%.
Consider `CCCCC/C=C\C/C=C\CCCCCCCC(=O)O` [Linoleic Acid], for which the “% Control TPST Activity” value came out at 113%.
With `CCCCCCCC/C=C\CCCCCCCC(=O)O` [Oleic Acid], the “% Control TPST Activity” value was 111%.
On the same count and under the same terms, next, `CCCCC[C@H](O)/C=C/[C@H]1[C@H](O)CC(=O)[C@@H]1C/C=C\CCCC(=O)O` [PGE2, prostaglandin E2]: 124%; `O=c1c(O)c(-c2ccc(O)c(O)c2)oc2cc(O)cc(O)c12` [Quercetin]: 3%; `O=C(O)CCC(=O)O` [Succinate]: 59%.

Staying with this experiment, now noted: Table 2; 1000 μM; normal human platelets.
Consider `N[C@@H](Cc1ccccc1)C(=O)O` [Phenylalanine], for which the “% Control TPST Activity” value amounted to 40%.

Staying with this experiment, now noted: Table 5; fatty acid 0.5 μM.
Consider `CCCC(=O)O` [Butyric Acid], for which the “TPST activity (0 μM = 100.0)” value is given as 137.6.
As to `CCCCCCCC/C=C\CCCCCCCC(=O)O` [Oleic Acid], the “TPST activity (0 μM = 100.0)” value is given as 74.5.

Still in this experiment, the particulars now being: Table 5; fatty acid 1 μM.
As for `CCCC(=O)O` [Butyric Acid], the “TPST activity (0 μM = 100.0)” value was 96.8.
The same measure, in the same setting: next, `CCCCCCCC/C=C\CCCCCCCC(=O)O` [Oleic Acid]: 61.5.

Staying with this experiment, now noted: Table 5; fatty acid 2.5 μM.
Turning to `CCCC(=O)O` [Butyric Acid], the “TPST activity (0 μM = 100.0)” value turned out to be 114.3.
For `CCCCCCCC/C=C\CCCCCCCC(=O)O` [Oleic Acid], the “TPST activity (0 μM = 100.0)” value came out at 69.2.

Staying with this experiment, now noted: Table 5; fatty acid 5 μM.
As to `CCCC(=O)O` [Butyric Acid], the “TPST activity (0 μM = 100.0)” value is recorded as 94.6.
As to `CCCCCCCC/C=C\CCCCCCCC(=O)O` [Oleic Acid], the “TPST activity (0 μM = 100.0)” value is given as 51.4.

Staying with this experiment, now noted: Table 5; fatty acid 10 μM.
`CCCC(=O)O` [Butyric Acid]: the “TPST activity (0 μM = 100.0)” value is listed as 99.2.
As for `CCCCCCCC/C=C\CCCCCCCC(=O)O` [Oleic Acid], the “TPST activity (0 μM = 100.0)” value was determined as 60.5.

The same experiment, now with this note: Table 5; fatty acid 25 μM.
Consider `CCCC(=O)O` [Butyric Acid], for which the “TPST activity (0 μM = 100.0)” value is given as 76.1.
Same read-out and setting: next, `CCCCCCCC/C=C\CCCCCCCC(=O)O` [Oleic Acid]: 56.2.

Staying with this experiment, now noted: Table 5; fatty acid 50 μM.
For `CCCC(=O)O` [Butyric Acid], the “TPST activity (0 μM = 100.0)” value is 86.4.
Take `CCCCCCCC/C=C\CCCCCCCC(=O)O` [Oleic Acid]: the “TPST activity (0 μM = 100.0)” value is 54.3.

The same experiment, now with this note: Table 5; fatty acid 100 μM.
Consider `CCCC(=O)O` [Butyric Acid], for which the “TPST activity (0 μM = 100.0)” value was determined as 62.2.
On the same count and under the same terms, for `CCCCCCCC/C=C\CCCCCCCC(=O)O` [Oleic Acid] the value was 29.5.

Still in this experiment, the particulars now being: Table 6; 25 μM, dissolved in DMSO; human platelets.
As for `O=c1c(-c2ccc(O)cc2)coc2cc(O)ccc12` [Daidzein], the “% Control TPST Activity” value was 279%.
As for `O=c1cc(-c2ccccc2)oc2ccccc12` [Flavone], the “% Control TPST Activity” value came out at 180%.
Take `O=c1c(-c2ccc(O)cc2)coc2cc(O)cc(O)c12` [Genistein]: the “% Control TPST Activity” value worked out at 117%.
Still for that read-out and setting: for `O=c1c(O)c(-c2ccc(O)c(O)c2)oc2cc(O)cc(O)c12` [Quercetin] the value was 48%.

Still in this experiment, the particulars now being: Table 7; flavonoid 0.5 μM.
With `O=c1cc(-c2ccccc2)oc2ccccc12` [Flavone], the “TPST activity (0 μM = 100)” value was determined as 80.3.
With `O=c1c(O)c(-c2ccc(O)c(O)c2)oc2cc(O)cc(O)c12` [Quercetin], the “TPST activity (0 μM = 100)” value came to 45.8.

The experiment is the same for the next values; noted with them: Table 7; flavonoid 1 μM.
As to `O=c1cc(-c2ccccc2)oc2ccccc12` [Flavone], the “TPST activity (0 μM = 100)” value came to 96.4.
Still for that read-out and setting: for `O=c1c(O)c(-c2ccc(O)c(O)c2)oc2cc(O)cc(O)c12` [Quercetin] the value was 33.7.

The same experiment, now with this note: Table 7; flavonoid 2.5 μM.
In the case of `O=c1c(-c2ccc(O)cc2)coc2cc(O)ccc12` [Daidzein], the “TPST activity (0 μM = 100)” value was 100.2.
As for `O=c1cc(-c2ccccc2)oc2ccccc12` [Flavone], the “TPST activity (0 μM = 100)” value is reported as 93.5.
The same measure, in the same setting: next, `O=c1c(-c2ccc(O)cc2)coc2cc(O)cc(O)c12` [Genistein]: 86.5.
In the case of `O=c1c(O)c(-c2ccc(O)c(O)c2)oc2cc(O)cc(O)c12` [Quercetin], the “TPST activity (0 μM = 100)” value is on record as 25.7.

Still in this experiment, the particulars now being: Table 7; flavonoid 5 μM.
`O=c1c(-c2ccc(O)cc2)coc2cc(O)ccc12` [Daidzein]: the “TPST activity (0 μM = 100)” value came to 107.5.
On the same count and under the same terms, for `O=c1cc(-c2ccccc2)oc2ccccc12` [Flavone] the value was 102.3.
On the same count and under the same terms, for `O=c1c(-c2ccc(O)cc2)coc2cc(O)cc(O)c12` [Genistein] the value was 83.4.
As to `O=c1c(O)c(-c2ccc(O)c(O)c2)oc2cc(O)cc(O)c12` [Quercetin], the “TPST activity (0 μM = 100)” value was determined as 21.1.

The same experiment, now with this note: Table 7; flavonoid 10 μM.
With `O=c1c(-c2ccc(O)cc2)coc2cc(O)ccc12` [Daidzein], the “TPST activity (0 μM = 100)” value was 181.1.
In the case of `O=c1cc(-c2ccccc2)oc2ccccc12` [Flavone], the “TPST activity (0 μM = 100)” value came to 126.
In the case of `O=c1c(-c2ccc(O)cc2)coc2cc(O)cc(O)c12` [Genistein], the “TPST activity (0 μM = 100)” value was 75.8.
On to `O=c1c(O)c(-c2ccc(O)c(O)c2)oc2cc(O)cc(O)c12` [Quercetin], for which the “TPST activity (0 μM = 100)” value came out at 9.5.

The experiment is the same for the next values; noted with them: Table 7; flavonoid 25 μM.
On to `O=c1c(-c2ccc(O)cc2)coc2cc(O)ccc12` [Daidzein], for which the “TPST activity (0 μM = 100)” value worked out at 343.2.
With `O=c1cc(-c2ccccc2)oc2ccccc12` [Flavone], the “TPST activity (0 μM = 100)” value is 172.8.
As for `O=c1c(-c2ccc(O)cc2)coc2cc(O)cc(O)c12` [Genistein], the “TPST activity (0 μM = 100)” value was 50.9.
Take `O=c1c(O)c(-c2ccc(O)c(O)c2)oc2cc(O)cc(O)c12` [Quercetin]: the “TPST activity (0 μM = 100)” value was 5.

Staying with this experiment, now noted: Table 7; flavonoid 50 μM.
`O=c1c(-c2ccc(O)cc2)coc2cc(O)ccc12` [Daidzein]: the “TPST activity (0 μM = 100)” value stood at 303.1.
Still for that read-out and setting: next, `O=c1cc(-c2ccccc2)oc2ccccc12` [Flavone]: 230.2; `O=c1c(-c2ccc(O)cc2)coc2cc(O)cc(O)c12` [Genistein]: 62; `O=c1c(O)c(-c2ccc(O)c(O)c2)oc2cc(O)cc(O)c12` [Quercetin]: 0.9.

Staying with this experiment, now noted: Table 7; flavonoid 100 μM.
For `O=c1cc(-c2ccccc2)oc2ccccc12` [Flavone], the “TPST activity (0 μM = 100)” value is given as 307.3.
Take `O=c1c(O)c(-c2ccc(O)c(O)c2)oc2cc(O)cc(O)c12` [Quercetin]: the “TPST activity (0 μM = 100)” value was 0.
